The values below come from patent EP2084544B1, “STABLE STANDARDS FOR BNP IMMUNOASSAYS” (Hytest Ltd., priority 2006, dated 2011).

The structures appear in SMILES notation.

A short description of this data set: Stability of BNP immunoreactivity of antigens incubated in pooled human citrate plasma, measured by sandwich immunofluorometric assay (MAbs 50E1 / 24C5-Eu). The format is in vitro ADME. From the text:
Antigens used in the studies. The antigens used in the stability studies included synthetic BNP-32 (Bachem, Bubendorf, Switzerland, cat. no. H-9060.0500), synthetic BNP-32 (Peptide Institute, Osaka, Japan, cat. no. 4212-v), recombinant proBNP (expressed in E. coli, non-glycosylated, from Hytest Ltd., Turku, Finland, 8PRO8), recombinant proBNP (expressed in eukaryotic CHO (Chinese hamster) cells and, thus, glycosylated, as described herein), and recombinant proBNP (expressed in eukaryotic HEK (human) cells and, thus, glycosylated, as described herein).
Antigen solutions. An antigen matrix was prepared by pooling human citrate plasmas collected from healthy donors. Plasma was obtained from 15 healthy volunteers by vein puncture and mixed with 0.11 M sodium citrate tribasic in a ratio of 4:1. The crude serum:citrate was centrifuged for 30 minutes at 2000 rpm. Plasma was decanted, pooled and stored at -70°C until use. Antigen concentrations used in the studies were 6 ng/ml for recombinant proBNP expressed in CHO cells, 20 ng/ml for synthetic BNPs, 20 ng/ml for recombinant proBNP expressed in E. coli and 20 ng/ml for recombinant proBNP expressed in HEK cells. 0.1 % sodium azide was added to plasma as a preservative to prevent bacterial growth.
Incubation at 4°C and 25°C. Antigen solutions in human plasma were incubated for different time periods (up to 96 hours) at 4°C and 25°C. Aliquots were frozen and stored at -70°C until BNP immunoreactivity was measured.
Assays for BNP immunoreactivity. BNP immunoreactivity in the samples was determined by sandwich immunofluorometric assay utilizing two BNP-specific monoclonal antibodies (MAbs). […]
MAb 24C5 specifically recognized and bound to peptide 11-22 of the BNP sequence and was conjugated to stable Eu^3+ chelate using conventional techniques. […] Consequently, it can be used for the quantification of whole BNP immunoreactivity, comprising both BNP and proBNP.

Take `CC[C@H](C)[C@@H]1NC(=O)[C@H](CCCNC(=N)N)NC(=O)[C@H](CC(=O)O)NC(=O)[C@H](CCSC)NC(=O)[C@H](CCCCN)NC(=O)[C@H](CCCNC(=N)N)NC(=O)CNC(=O)[C@H](Cc2ccccc2)NC(=O)[C@@H](NC(=O)CNC(=O)[C@H](CO)NC(=O)CNC(=O)[C@H](CCC(N)=O)NC(=O)[C@@H](NC(=O)[C@H](CCSC)NC(=O)[C@H](CCCCN)NC(=O)[C@@H]2CCCN2C(=O)[C@@H](N)CO)C(C)C)CSSC[C@@H](C(=O)N[C@@H](CCCCN)C(=O)N[C@H](C(=O)N[C@@H](CC(C)C)C(=O)N[C@@H](CCCN=C(N)N)C(=O)N[C@@H](CCCN=C(N)N)C(=O)N[C@@H](Cc2cnc[nH]2)C(=O)O)C(C)C)NC(=O)CNC(=O)[C@H](CC(C)C)NC(=O)CNC(=O)[C@H](CO)NC(=O)[C@H](CO)NC(=O)[C@H](CO)NC(=O)[C@H](CO)NC1=O` [Synthetic BNP-32]: the “immunoreactivity detected after incubation (in words)” value reads like this: (96 hours of incubation at 4°C) “Almost no immunoreactivity”; (96 hours of incubation at 25°C) “Almost no immunoreactivity”. The “stability among the tested protein forms displaying BNP immunoreactivity (rank in words)” value (incubation up to 96 hours at 4°C and 25°C) is on record as “worst stability”.
